Test results reported in patent US20180193372A1, “NOVEL BIOMARKER FOR DIAGNOSING RESISTANCE TO ANTICANCER AGENT FOR BILLARY TRACT CANCER AND USE THEREOF” (COWELL BIODIGM CO., LTD., priority 2015, published 2018).

Columns and labels:
[1] = tested on: SNU1196/GR cells; assay: MTT assay of anticancer agent susceptibility after inhibiting TAGLN2 expression; assay type: cell-based, human; settings: for change in susceptibility to anticancer agent when TAGLN2 expression was inhibited: TAGLN2 siRNA transfection
Method: As siRNA for TAGLN2, sc-106633 produced by Santa Cruz Biotechnology was used, and as control siRNA, sc-37007 (Santa Cruz Biotechnology) was used. An anticancer agent (gemcitabine)-resistant biliary tract cancer cell line SNU1196/GR was transfected with each of control siRNA and TAGLN2 siRNA using a lipofectamine RNAiMAX transfection reagent (Invitrogen), and after 24 hours, was cultured for 72 hours by treating with gemcitabine at various concentrations. The cell line reacted with an MTT solution (Sigma-Aldrich) for 3 hours, and then absorbance at 570 nm was measured by treating with DMSO to determine whether the anticancer agent resistance was overcome through inhibition of TAGLN2 expression in the anticancer agent-resistant biliary tract cancer cell line. The inhibition of the expression by TAGLN2 siRNA was confirmed by western blotting after 72 hours of the transfection.

[2] = tested on: SNU1196/P cells; assay: MTT assay with gemcitabine, parent cell line; assay type: cell-based; settings: Homo sapiens, 10 nM stated to be lower than the IC50, read-out: IC50 concentration of parent cell line
Method: (§1) To create an anticancer agent-resistant biliary tract cancer cell line, a SNU1196 cell line was treated with gemcitabine at various concentrations and then subjected to MTT assay to calculate an IC50 value, and the cells were treated with gemcitabine at a concentration of IC50 for 3 days. After 3 days, when the cells were recovered after being cultured in a drug-free growth medium [10% fetal bovine serum (FBS; Hyclone)-containing RPMI1640 (Invitrogen Gibco)], the cells were recovered by treating with gemcitabine at double the IC50 concentration for 3 days, and an anticancer agent-resistant cell line (named SNU1196/GR) was established by repeating such a cell culturing procedure for 1 year. Whether the resistance to the anticancer agent was acquired was confirmed by MTT assay.
Cells derived from biliary tract cancer cell line SNU1196 and anticancer agent-resistant biliary tract cancer cell line SNU1196/GR were attached to 96-well plates at 3×10^3 cells/well, and the following day, the cells were cultured for 72 hours by treating with gemcitabine at various concentrations. […] After 3 hours, the MTT solution was removed, and then absorbance was measured at 570 nm by adding dimethyl sulfoxide (DMSO) at 100 μl/well.

[3] = tested on: SNU1196/GR cells; assay: MTT assay confirming resistance to anticancer agent (gemcitabine), resistant line; assay type: cell-based, human; settings: SNU1196/GR vs SNU1196/P, 72 hours
Method: as §1, with “assay. Cells derived from biliary tract cancer cell line SNU1196 and anticancer agent-resistant biliary tract cancer cell line SNU1196/GR were attached to 96-well plates at 3×10^3 cells/well, and the following day, the cells were cultured for 72 hours by treating with gemcitabine at various concentrations. […] After 3 hours, the MTT solution was removed, and then absorbance was measured at 570 nm by adding dimethyl sulfoxide (DMSO) at 100 μl/well.” for “assay.”

| Structure (SMILES) | change in susceptibility to anticancer agent when TAGLN2 expression was inhibited [1] | also measured |
| --- | --- | --- |
| O=c1[nH]cc(F)c(=O)[nH]1 [5-FU, 5-fluorourasil] | increased | – |
| N.N.O=C([O-])C1(C(=O)[O-])CCC1.[Pt+2] [carboplatin] | increased | – |
| N.N.[Cl][Pt][Cl] [cisplatin] | increased | – |
| C#Cc1cccc(Nc2ncnc3cc(OCCOC)c(OCCOC)cc23)c1 [erlotinib] | did not cause changes | – |
| COc1cc([C@@H]2c3cc4c(cc3[C@@H](O[C@@H]3O[C@@H]5CO[C@@H](C)O[C@H]5[C@H](O)[C@H]3O)[C@H]3COC(=O)[C@H]23)OCO4)cc(OC)c1O [etoposide] | did not cause changes | – |
| Nc1ccn([C@@H]2O[C@H](CO)[C@@H](O)C2(F)F)c(=O)n1 [gemcitabine] | – | IC50 [2]: > 10 nM; IC50 value of SNU1196/GR cells for gemcitabine relative to parent cell line [3]: 100 times; increase of anticancer agent susceptibility ([1]; co-treatment with TAGLN2 siRNA, gemcitabine 10 nM): 43% |
| CCc1c2c(nc3ccc(OC(=O)N4CCC(N5CCCCC5)CC4)cc13)-c1cc3c(c(=O)n1C2)COC(=O)[C@]3(O)CC [irinotecan] | did not cause changes | – |
| O=C1[O][Pt]2([NH][C@@H]3CCCC[C@H]3[NH]2)[O]C1=O [oxaliplatin] | increased | – |
